Test results as given in publication PMC12073298, “Design, Synthesis, and Biological Evaluation of Naphthoquinone Salts as Anticancer Agents” (Molecules, 2025).
Where two headings read alike, the source gives them in different places.

Legend:
[1] = tested on: human endometrial cancer cells (HEC1A); assay: MTT cell viability assay, HEC1A cells; format: cell-based; details: for IC50: 48 h, HEC1A cells, MTT, n = 3 biological replicates, read-out: Mean IC50 (μM) HEC1A ± SD; for Selectivity Ratio: IC50 value from MAD11 cells divided by the IC50 value from HEC1A cells
Description: (§1) The cytotoxic effects of the synthesized salt compounds were assessed against human endometrial cancer cells (HEC1A) and normal endometrial stromal cells (MAD11) using the MTT cell viability assay. BH10 was used as the reference compound.
(§2) Reagents and equipment: phosphate-buffered saline (PBS) (Sigma Aldrich, St. Louis, MO, USA), 10× Trypsin-EDTA solution (Sigma Aldrich, 59418C), Dulbecco’s Modified Eagle’s Medium (Sigma Aldrich), foetal bovine serum (FBS), and 100× penicillin-streptomycin solution (Sigma Aldrich P4333). The MTT reagent was prepared by dissolving 5 mg/mL MTT powder in sterile PBS, followed by filtration, whereas the MTT solvent contained 4 mM HCl and 0.1% Nonidet P-40 in isopropanol. Dimethyl sulfoxide (DMSO) was also sourced from Sigma Aldrich. Absorbance measurements were acquired using Kaleido 1.0 software coupled with an EnSight™ HH3400 Multimode Plate Reader (PerkinElmer, Waltham, MA, USA). HEC-1-A endometrial cancer cells were obtained from ATCC, while MAD11 endometrial stromal cells were provided by Dr. Hui Li (University of Virginia). MAD11 cells, derived from non-cancerous donors, were immortalized via human telomerase reverse transcriptase (hTERT).
(§3) Method: The methods were adapted from Byrne et al. (2014). Cells were cultured in DMEM supplemented with 10% FBS and 1% Pen-Strep solution (100 U/mL penicillin and 0.1 mg/mL streptomycin). Upon reaching ~70% confluence, the cells were washed with sterile PBS and detached using a 1× trypsin-EDTA solution. The cells were then resuspended in culture media, counted, and seeded into sterile 96-well tissue culture plates (2500 cells per well for MAD11; 5000 cells per well for HEC-1-A). The cells were incubated at 37 °C with 5% CO2 for 24 h prior to drug treatment. Drugs were serially diluted in culture medium to final concentrations of 100, 50, 25, 12.5, 6.3, 3.1, 1.6, and 0.8 µM per well and applied in triplicate. For compounds 7a–f and 15, as their IC₅₀ values were below 0.8 µM, an additional set of three biological replicates was conducted using a lower concentration range (500, 250, 125, 63, 31, 16, 8, and 4 nM). To minimize variations due to DMSO (vehicle), both drug dilutions and control wells received the same final concentration of DMSO. After 48 h of incubation at 37 °C with 5% CO2, cell viability was assessed by adding 20 µL/well of MTT reagent for 3 h. Supernatants were aspirated, and formazan crystals were dissolved in MTT solvent before absorbance was measured at 590/620 nm using an EnSight™ HH3400 Multimode Plate Reader. Cell viability was expressed as a percentage of the vehicle (DMSO-treated) control, with results reported as mean ± SEM from three independent experiments. IC50 values were determined using GraphPad Prism 9.

[2] = tested on: normal endometrial stromal cells (MAD11); assay: MTT cell viability assay, MAD11 cells; format: cell-based, human; details: MAD11 non-cancerous cells, n = 3 biological replicates, read-out: Mean IC50 (μM) MAD11 ± SD
Description: as §1, §2, §3

[3] = tested on: human endometrial cancer cells (HEC1A); details: previous study, cited from earlier work
[4] = cell line not printed here, read-out: IC50 (anticancer potency of starting materials)
[5] = non-salt parent compounds, read-out: IC50 of parent naphthoimidazole analogues

Row | SMILES | IC50 ([1]; Homo sapiens, HEC-1-A) [µM] | Selectivity Ratio [1] | IC50 ([2]; Homo sapiens, MAD11, 48 h) [µM] | other results
1 | C[N+]1(CCCn2cc(Cn3c(C(F)(F)F)nc4c3C(=O)c3ccccc3C4=O)nn2)CCCCC1.[I-] [Compound 17c, 1-(3-(4-((4,9-Dioxo-2-(trifluoromethyl)-4,9-dihydro-1H-naphtho [2,3-d]imidazol-1-yl)methyl)-1H-1,2,3-triazol-1-yl)propyl)-1-methylpiperidin-1-ium iodide] | 5.62 ± 1.43 | >17.79 | > 100 | 
2 | Cc1n(C)c2c([n+]1C)C(=O)c1c(cccc1[N+](=O)[O-])C2=O.[Br-] [Compound 7b, 1,2,3-Trimethyl-5-nitro-4,9-dioxo-4,9-dihydro-1H-naphtho [2,3-d]imidazol-3-ium bromide] | 0.023 ± 0.0033 | 41.43 | 0.952 ± 0.215 | 
3 | C[N+](C)(C)CCCNC1=C(Cl)C(=O)c2ccccc2C1=O [Compound 2e, 3-((3-Chloro-1,4-dioxo-1,4-dihydronaphthalen-2-yl)amino)-N,N,N-trimethylpropan-1-aminium iodide] | > 100 |  | > 100 | 
4 | Cn1c[n+](C)c2ccccc21 [Compound 13, 1,3-Dimethyl-1H-benzo[d]imidazol-3-ium iodide] | > 100 |  | > 100 | 
5 | COc1ccc2c(c1)C(=O)c1c(n(C)c(C)[n+]1C)C2=O [Compound 7d, 6-Methoxy-1,2,3-trimethyl-4,9-dioxo-4,9-dihydro-1H-naphtho [2,3-d]imidazol-3-ium bromide] | 0.0256 ± 0.0021 |  | 0.194 ± 0.0191 | 
6 | CC1=C(NCC[N+]2(C)CCOCC2)C(=O)c2ccccc2C1=O [Compound 2h, 4-Methyl-4-(2-((3-methyl-1,4-dioxo-1,4-dihydronaphthalen-2-yl)amino)ethyl)morpholin-4-ium iodide] | 95.5 ± 14.7 |  | > 100 | 
7 | C[N+]1(CCNC2=C(Cl)C(=O)c3ccccc3C2=O)CCCCC1.[I-] [Compound 2d, 1-(2-((3-Chloro-1,4-dioxo-1,4-dihydronaphthalen-2-yl)amino)ethyl)-1-methylpiperidin-1-ium iodide] | 58.8 ± 3.01 | >1.70 | > 100 | 
8 | Cc1n(C)c2c([n+]1C)C(=O)c1ccncc1C2=O.[Br-] [Compound 7f, 1,2,3-Trimethyl-4,9-dioxo-4,9-dihydro-3H-imidazo [4,5-g]isoquinolin-1-ium bromide] | 0.472 ± 0.0378 | 10.16 | 4.8 ± 0.327 | loss in potency relative to 7a ([1]; Figure 3, SAR summary): ~ 50 fold
9 | C[N+]1(CCn2cc(Cn3c(C(F)(F)F)nc4c3C(=O)c3ccccc3C4=O)nn2)CCCCC1.[I-] [Compound 17b, 1-(2-(4-((4,9-Dioxo-2-(trifluoromethyl)-4,9-dihydro-1H-naphtho [2,3-d]imidazol-1-yl)methyl)-1H-1,2,3-triazol-1-yl)ethyl)-1-methylpiperidin-1-ium iodide] | 6.79 ± 1 | >14.73 | > 100 | 
10 | C[N+]1(CCCNC2=CC(=O)c3ccccc3C2=O)CCCCC1 [Compound 2b, 1-(3-((1,4-Dioxo-1,4-dihydronaphthalen-2-yl)amino)propyl)-1-methylpiperidin-1-ium iodide] | > 100 |  | > 100 | 
11 | O=C1C=C(NCCN2CCOCC2)C(=O)c2ccccc21 [Compound 1a] |  |  |  | IC50 [3, 4]: > 40 µM
12 | Cc1n(C)c2c([n+]1C)C(=O)c1ccccc1C2=O.[I-] [Compound 15, 1,2,3-Trimethyl-4,9-dioxo-4,9-dihydro-1H-naphtho [2,3-d]imidazol-3-ium iodide] |  | 11.43 |  | IC50 [1]: 0.0135 ± 0.0009 µM; IC50 ([2]; 48 h): 0.154 ± 0.0109 µM
13 | Cc1n(C)c2cc3ccccc3cc2[n+]1C.[I-] [Compound 9, 1,2,3-Trimethyl-1H-naphtho [2,3-d]imidazol-3-ium iodide] | 24.9 | 2.70 | 64.6 ± 14 | IC50 [1]: 23.9 ± 2.97 µM
14 | O=C1c2ccccc2C(=O)c2c1nc(C(F)(F)F)n2Cc1cn(CCN2CCOCC2)nn1 [Compound 16a] |  |  |  | selectivity of parent naphthoimidazole analogues ([3]; non-salt parent compounds): 1.73; IC50 [3, 5]: 18.1 µM
15 | C[N+]1(CCNC2=C(Br)C(=O)c3ccccc3C2=O)CCOCC1.[I-] [Compound 2g, 4-(2-((3-Bromo-1,4-dioxo-1,4-dihydronaphthalen-2-yl)amino)ethyl)-4-methylmorpholin-4-ium iodide] | 23.8 ± 4.17 | >4.20 | > 100 | 
16 | Cc1ccc2c(c1)C(=O)c1c([n+](C)c(C)n1C)C2=O [Compound 7e, 1,2,3,7-Tetramethyl-4,9-dioxo-4,9-dihydro-1H-naphtho [2,3-d]imidazol-3-ium bromide] | 0.0149 ± 0.0012 |  | 0.101 ± 0.0124 | 
17 | Cc1nc2c(n1CCC[N+]1(C)CCCCC1)C(=O)c1ccccc1C2=O.[I-] [Compound 19, 1-Methyl-1-(3-(2-methyl-4,9-dioxo-4,9-dihydro-1H-naphtho [2,3-d]imidazol-1-yl)propyl) piperidin-1-ium iodide] | 6.35 ± 1.41 | 6.42 | 40.8 ± 14.1 | 
18 | C[N+]1(CCn2cc(Cn3c(C(F)(F)F)nc4c3C(=O)c3ccccc3C4=O)nn2)CCOCC1.[I-] [Compound 17a, 4-(2-(4-((4,9-Dioxo-2-(trifluoromethyl)-4,9-dihydro-1H-naphtho [2,3-d]imidazol-1-yl)methyl)-1H-1,2,3-triazol-1-yl)ethyl)-4-methylmorpholin-4-ium iodide] | 11.2 ± 2.63 | 9.93 | 111 ± 45 | 
19 | CC1=C(NCCN2CCOCC2)C(=O)c2ccccc2C1=O [Compound 1h] |  |  |  | IC50 [3, 4]: > 40 µM
20 | Cc1n(C)c2c([n+]1C)C(=O)c1ccccc1C2=O.[Br-] [Compound 7a, 1,2,3-Trimethyl-4,9-dioxo-4,9-dihydro-1H-naphtho [2,3-d]imidazol-3-ium bromide] | 0.00953 ± 0.0007 | 6.89 |  | IC50 ([2]; 48 h): 0.0657 ± 0.00641 µM
21 | Cc1n(C)c2ccccc2[n+]1C [Compound 11, 1,2,3-Trimethyl-1H-benzo[d]imidazol-3-ium iodide] | > 100 |  | > 100 | 
22 | C[N+](C)(C)CCNC1=C(Cl)C(=O)c2ccccc2C1=O [Compound 2c, 2-((3-Chloro-1,4-dioxo-1,4-dihydronaphthalen-2-yl)amino)-N,N,N-trimethylethan-1-aminium iodide] | 97.2 ± 8.2 |  | > 100 | 
23 | Cc1nc2c(n1CCCN1CCCCC1)C(=O)c1ccccc1C2=O [Compound 18] |  |  |  | selectivity of parent naphthoimidazole analogues ([3]; non-salt parent compounds): 3.59; IC50 [3, 5]: 6.4 µM
24 | C[N+]1(CCCNC2=C(Cl)C(=O)c3ccccc3C2=O)CCOCC1 [Compound 2f, 4-(3-((3-Chloro-1,4-dioxo-1,4-dihydronaphthalen-2-yl)amino)propyl)-4-methylmorpholin-4-ium iodide] | > 100 |  | > 100 | 
25 | Cc1n(C)c2c([n+]1C)C(=O)c1cc([N+](=O)[O-])ccc1C2=O.[Br-] [Compound 7c, 1,2,3-Trimethyl-6-nitro-4,9-dioxo-4,9-dihydro-1H-naphtho [2,3-d]imidazol-3-ium bromide] | 0.0288 ± 0.0014 | 2.37 | 0.0685 ± 0.0061 | 
26 | C[N+]1(CCNC2=CC(=O)c3ccccc3C2=O)CCOCC1.[I-] [Compound 2a, 4-(2-((1,4-Dioxo-1,4-dihydronaphthalen-2-yl)amino)ethyl)-4-methylmorpholin-4-ium iodide] | 21.1 ± 2.99 | >4.73 | > 100 | 
27 | O=C1c2ccccc2C(=O)c2c1nc(C(F)(F)F)n2Cc1cn(CCCN2CCCCC2)nn1 [Compound 16c] |  |  |  | selectivity of parent naphthoimidazole analogues ([3]; non-salt parent compounds): 2.77; IC50 [3, 5]: 2.6 µM
28 | O=C1c2ccccc2C(=O)c2c1nc(C(F)(F)F)n2Cc1cn(CCN2CCCCC2)nn1 [Compound 16b] |  |  |  | selectivity of parent naphthoimidazole analogues ([3]; non-salt parent compounds): 2.01
